Patent publication US11925629B2, “Heterocyclic inhibitors of ERK1 and ERK2 and their use in the treatment of cancer” (Asana Biosciences, LLC, priority 2015, dated 2024)
Where two headings read alike, the source gives them in different places.

Key:
[1] = tested on: phosphorylation of RSK1(S380) (the downstream target of ERK1/2); test: Phospho-RSK1(S380) ELISA assay in HT-29 cells; assay type: cell-based, human; conditions: read-out: Mechanistic Cell Assay RSK1 Phos HT29 IC50
Summary of the method: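 IC50 values derive from a variable-slope sigmoidal fit of sandwich-ELISA signal (450 nm) for RSK1 Ser380 phosphorylation. The cells were B-RafV600E HT-29 colorectal line, exposed to serially diluted compound for 2 h after overnight seeding, then lysed at 4° C.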

ERK1 = biological target: T1, ERK1 (Homo sapiens, UniProt P27361); test: ERK1 HTRF (biochemical) assay
T1 construct: purchased Jubilant Biosys
T1 sequence (P27361 whole entry): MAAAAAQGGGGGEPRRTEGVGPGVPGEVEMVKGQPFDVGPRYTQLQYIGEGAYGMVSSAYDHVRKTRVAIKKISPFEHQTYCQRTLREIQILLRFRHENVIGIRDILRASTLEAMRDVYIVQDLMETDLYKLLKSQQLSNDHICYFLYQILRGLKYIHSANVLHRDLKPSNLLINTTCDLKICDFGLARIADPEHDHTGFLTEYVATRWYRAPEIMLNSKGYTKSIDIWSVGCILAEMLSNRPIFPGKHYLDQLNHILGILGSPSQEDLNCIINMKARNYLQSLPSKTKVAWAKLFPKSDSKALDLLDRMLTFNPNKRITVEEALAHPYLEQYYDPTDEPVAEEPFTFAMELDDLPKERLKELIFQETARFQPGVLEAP
Method: (§1) ERK1 and ERK2 HTRF (Biochemical) Assays
These assays employed a homogeneous time resolved fluorescence (HTRF) technique. […] The plate was incubated at room temperature for 60 min with shaking. […] The IC50 values (half maximal inhibitory concentration values) were subsequently determined using a sigmoidal dose-response curve (variable slope) in GraphPad Prism® 5 software.

[2] = tested on: HCT116 (colorectal carcinoma, K Ras G13D) cells; test: Cell proliferation (Alamar Blue) assay, HCT116; assay type: cell-based, human
Summary of the method: (§2)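 Fluorescence read-out (ex 540 nm, em 590 nm) after 1-3 h with 1× Alamar Blue, following 72 h compound exposure at 37° C./5% CO2. Compounds tested at typically 0.0005 to 10 uM, 3-fold steps; IC50 by sigmoidal dose-response (variable slope).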

[3] = tested on: HT-29 (colorectal carcinoma, B-RafV600E) cells; test: Cell proliferation (Alamar Blue) assay, HT-29; assay type: cell-based, human; conditions: Homo sapiens, HT-29, HT29 cells
Summary of the method: as §2

ERK2 = biological target: T2, ERK2 (Homo sapiens, UniProt P28482); test: ERK2 HTRF (biochemical) assay
T2 construct: purchased Jubilant Biosys
T2 sequence (P28482 whole entry): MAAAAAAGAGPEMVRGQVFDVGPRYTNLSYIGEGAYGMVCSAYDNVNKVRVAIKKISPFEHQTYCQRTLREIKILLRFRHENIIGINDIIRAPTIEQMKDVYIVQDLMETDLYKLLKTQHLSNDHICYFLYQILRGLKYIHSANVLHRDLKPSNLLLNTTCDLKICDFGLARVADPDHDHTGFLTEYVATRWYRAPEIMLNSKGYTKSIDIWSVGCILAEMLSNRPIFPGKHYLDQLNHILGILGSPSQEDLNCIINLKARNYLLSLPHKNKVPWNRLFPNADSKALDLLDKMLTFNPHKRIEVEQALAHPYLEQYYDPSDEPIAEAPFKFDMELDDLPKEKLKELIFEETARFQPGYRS
Method: as §1
These assays employed a homogeneous time resolved fluorescence (HTRF) technique. The compounds were serially diluted by half-log with concentrations ranging from 0.0005 to 10 uM in the assay buffer (50 mM Tris pH=7.5, 1 mM EGTA, 2 mM DTT, 10 mM MgCl2, 0.100 Tween-20) and 20 uL of substrate-ATP mix [1 uM Biotin-LC-Myelin Basic Protein (MBP) derivatized Peptide (Anaspec)-24 uM ATP (Sigma)] was added to each well of the assay plate. Then 10 uL of enzyme mix [25 nM ERK1 or ERK2 (Jubilant Biosys) in assay buffer] was added to each well. The plate was incubated at room temperature for 60 min with shaking. The HTRF mix [625 nM LANCER Ultra Europium-anti-phospho-MBP (Perkin Elmer) and 2 nM Phycolink® Streptavidin-Allophycocyanin (SA-APC) (Prozyme) in HTRF buffer (50 mM Tris-HCl pH=7.5, 100 mM NaCl, 0.1% BSA, 0.05% Tween20, 0.5 mM EDTA)] was prepared and 75 uL of this mix was added to the HTRF plate. After incubation for 60 min at room temperature, 10 uL of the reaction mixture was transferred to the HTRF assay plate and incubated for 45 min at room temperature with shaking. Plate was read using Pherastar in HTRF mode (excitation 337 nm, emission 665 & 620 nm). The IC50 values (half maximal inhibitory concentration values) were subsequently determined using a sigmoidal dose-response curve (variable slope) in GraphPad Prism® 5 software.

[4] = Homo sapiens, HT-29, HT29 cells, phospho-RSK1(S380)
[5] = Homo sapiens, HCT-116, HCT116 cells
[6] = Homo sapiens, HT-29, HT29 cells

Compound | IC50 [1, 4] [nM] | IC50 (ERK1; HTRF biochemical assay) [nM] | IC50 [2, 5] [nM] | IC50 [3] [nM] | IC50 (ERK2; HTRF biochemical assay) [nM] | IC50 [1, 6] [nM] | IC50 (ERK1; HTRF) [nM] | IC50 (ERK2; HTRF) [nM] | IC50 ([1]; HT29 cells, phospho-RSK1(S380)) [nM] | IC50 ([2]; HCT116 cells) [nM]
Cc1cnc(NC2CC(F)(F)C2)nc1-n1cnc(C(=O)N[C@H](CN)c2cccc(Cl)c2)c1 [Compound #259, (S)—N-(2-Amino-1-(3-chlorophenyl)ethyl)-1-(2-((3,3-difluorocyclobutyl)amino)-5-methylpyrimidin-4-yl)-1H-imidazole-4-carboxamide] | 100 to 250 | < 50 | ≤ 100 | 100 to 250 | ≤ 50 | – | – | – | – | –
Cc1cnc(NC2CCOCC2)nc1-n1cnc(C(=O)N[C@H](CN)c2cc(F)cc(Cl)c2)c1 [Compound #275, (S)—N-(2-Amino-1-(3-chloro-5-fluorophenyl)ethyl)-1-(5-methyl-2-((tetrahydro-2H-pyran-4-yl)amino)pyrimidin-4-yl)-1H-imidazole-4-carboxamide] | ≤ 100 | < 50 | ≤ 100 | ≤ 100 | ≤ 50 | – | – | – | – | –
Cc1cnc(NC2CCOCC2)nc1-n1cnc(C(=O)NCc2cc(F)cc(Cl)c2CO)c1 [Compound #297, N-(3-Chloro-5-fluoro-2-(hydroxymethyl)benzyl)-1-(5-methyl-2-((tetrahydro-2H-pyran-4-yl)amino)pyrimidin-4-yl)-1H-imidazole-4-carboxamide] | 250 to 500 | < 50 | 100 to 250 | ≤ 100 | ≤ 50 | – | – | – | – | –
Cc1cnc(Nc2ccc3c(c2)OC(F)(F)O3)cc1-n1cnc(C(=O)NC(CO)c2ccccc2)c1 (centres unmarked) [Example 86, 1-(2-((2,2-difluoro-benzo[d][1,3]dioxol-5-yl)-amino)-5-methyl-pyridin-4-yl)-N-(2-hydroxy-1-phenyl-ethyl)-1H-imidazole-4-carboxamide] | – | 50 to 100 | > 2500 | > 2500 | 50 to 100 | – | – | – | – | –
Cc1cnc(Nc2ccccn2)cc1-n1ccc(C(=O)NC(CO)c2ccccc2)c1 (centres unmarked) [Example 149, N-(2-hydroxy-1-phenylethyl)-1-(5-methyl-2-(pyridin-2-ylamino)pyridin-4-yl)-1H-pyrrole-3-carboxamide] | > 2500 | 50 to 100 | > 2500 | > 2500 | ≤ 50 | – | – | – | – | –
Cc1cnc(NC2CCOCC2)nc1-n1cnc(C(=O)NC(CN)c2cc(F)cc(Cl)c2)c1 (centres unmarked) [Example 236, N-(2-amino-1-(3-chloro-5-fluorophenyl)ethyl)-1-(5-methyl-2-((tetrahydro-2H-pyran-4-yl)amino)pyrimidin-4-yl)-1H-imidazole-4-carboxamide] | ≤ 100 | < 50 | ≤ 100 | ≤ 100 | ≤ 50 | – | – | – | – | –
Cc1cccc(CNC(=O)c2cn(-c3nc(NC4CCOCC4)ncc3C)cn2)n1 [Example 279, 1-(5-methyl-2-((tetrahydro-2H-pyran-4-yl)amino)pyrimidin-4-yl)-N-((6-methylpyridin-2-yl)methyl)-1H-imidazole-4-carboxamide] | 100 to 250 | < 50 | 500 to 2500 | – | ≤ 50 | – | – | – | – | –
Cc1cnc(N[C@H]2CCOC2)nc1-n1cnc(C(=O)NC(CN)c2cc(F)cc(Cl)c2)c1 (stereo partly drawn) [Example 282, N-(2-amino-1-(3-chloro-5-fluorophenyl)ethyl)-1-(5-methyl-2-(((S)-tetrahydrofuran-3-yl)amino)pyrimidin-4-yl)-1H-imidazole-4-carboxamide] | ≤ 100 | < 50 | ≤ 100 | ≤ 100 | ≤ 50 | – | – | – | – | –
Cc1cnc(N[C@H]2CCOC2)nc1-n1cnc(C(=O)NCc2cccc(Cl)c2F)c1 [Example 315, (S)-N-(3-chloro-2-fluorobenzyl)-1-(5-methyl-2-((tetrahydrofuran-3-yl)amino)pyrimidin-4-yl)-1H-imidazole-4-carboxamide] | – | – | > 2500 | > 2500 | – | > 2500 | < 50 | ≤ 50 | – | –
Cc1cnc(N[C@H]2CCOC2)nc1-n1cnc(C(=O)NCc2c(F)cccc2F)c1 [Example 316, (S)-N-(2,6-difluorobenzyl)-1-(5-methyl-2-((tetrahydrofuran-3-yl)amino)pyrimidin-4-yl)-1H-imidazole-4-carboxamide] | – | – | > 2500 | > 2500 | – | > 2500 | 500 to 2500 | 100 to 500 | – | –
Cc1cnc(N[C@H]2CCOC2)nc1-n1cnc(C(=O)NCc2cccc(C(F)(F)F)c2Cl)c1 [Example 317, (S)-N-(2-chloro-3-(trifluoromethyl)benzyl)-1-(5-methyl-2-((tetrahydrofuran-3-yl)amino)pyrimidin-4-yl)-1H-imidazole-4-carboxamide] | – | – | > 2500 | > 2500 | – | > 2500 | 50 to 100 | ≤ 50 | – | –
Cc1cnc(N[C@H]2CCOC2)nc1-n1cnc(C(=O)NCc2cccc(Cl)c2Cl)c1 [Example 319, (S)-N-(2,3-dichlorobenzyl)-1-(5-methyl-2-((tetrahydrofuran-3-yl)amino)pyrimidin-4-yl)-1H-imidazole-4-carboxamide] | – | – | > 2500 | > 2500 | – | 500 to 2500 | < 50 | ≤ 50 | – | –
Cc1cnc(N[C@H]2CCOC2)nc1-n1cnc(C(=O)NCc2ccc(C(F)(F)F)c(F)c2)c1 [Example 321, (S)-N-(3-fluoro-4-(trifluoromethyl)benzyl)-1-(5-methyl-2-((tetrahydrofuran-3-yl)amino)pyrimidin-4-yl)-1H-imidazole-4-carboxamide] | – | – | > 2500 | > 2500 | – | 500 to 2500 | 50 to 100 | ≤ 50 | – | –
Cc1cnc(N[C@H]2CCOC2)nc1-n1cnc(C(=O)NCc2c(Cl)cccc2C(F)(F)F)c1 [Example 322, (S)-N-(2-chloro-6-(trifluoromethyl)benzyl)-1-(5-methyl-2-((tetrahydrofuran-3-yl)amino)pyrimidin-4-yl)-1H-imidazole-4-carboxamide] | – | – | > 2500 | > 2500 | – | > 2500 | 500 to 2500 | 500 to 2500 | – | –
Cc1cccc(CNC(=O)c2cn(-c3nc(N[C@H]4CCOC4)ncc3C)cn2)c1 [Example 323, (S)-1-(5-methyl-2-((tetrahydrofuran-3-yl)amino)pyrimidin-4-yl)-N-(3-methylbenzyl)-1H-imidazole-4-carboxamide] | – | – | > 2500 | > 2500 | – | 250 to 500 | < 50 | ≤ 50 | – | –
Cc1cnc(N[C@H]2CCOC2)nc1-n1cnc(C(=O)NCc2ccc(Cl)c(F)c2)c1 [Example 324, (S)-N-(4-chloro-3-fluorobenzyl)-1-(5-methyl-2-((tetrahydrofuran-3-yl)amino)pyrimidin-4-yl)-1H-imidazole-4-carboxamide] | – | – | > 2500 | > 2500 | – | 500 to 2500 | < 50 | ≤ 50 | – | –
CCC(=O)OCc1c(Cl)cccc1CNC(=O)c1cn(-c2nc(N[C@H]3CCOC3)ncc2C)cn1 [Example 346, (S)-2-chloro-6-((1-(5-methyl-2-((tetrahydrofuran-3-yl)amino)pyrimidin-4-yl)-1H-imidazole-4-carboxamido)-methyl)benzyl-propionate] | – | – | – | – | – | – | 50 to 100 | ≤ 50 | – | –
Cc1cnc(N[C@H]2CCOC2)nc1-n1cnc(C(=O)NC(C)(C)c2cccc(Cl)c2CO)c1 [Example 347, (S)-N-(2-(3-chloro-2-(hydroxymethyl)-phenyl)propan-2-yl)-1-(5-methyl-2-((tetrahydrofuran-3-yl)amino)pyrimidin-4-yl)-1H-imidazole-4-carboxamide] | – | – | – | – | – | – | 100 to 500 | 50 to 100 | – | –
N-(1-(3-chlorophenyl)-2-hydroxypropyl)-1-(5-methyl-2-((tetrahydro-2H-pyran-4-yl)amino)pyrimidin-4-yl)-1H-imidazole-4-carboxamide (isomer #1) [Example 253] | – | < 50 | – | – | ≤ 50 | – | – | – | 500 to 2500 | > 2500
